Assay results as given in USRE41151E1, “Protected forms of pharmacologically active agents and uses thereof” (Medinox, Inc., priority 2000, dated 2010).

Columns and labels:
Sprague-Dawley rats = experiment: Rat carrageenan-induced hindlimb edema model, paw volume increase; format: in vivo; settings: for paw volume increase, 4 Hours / paw volume increase, 5 Hours: one hour before carrageenan
Method: Efficacy of NSAIDs in acute inflammation can be estimated by using intraplanar injection of carrageenan in the rat. Sprague-Dawley rats (200-250 g male) are injected intradermally in the footpad with 50 μl of a 1% carrageenan solution in PBS. Swelling of the injected paw is measured 3 & 4 hours later, using a plethysmometer.

[1] = Plasma pharmacokinetics of naproxen after oral administration in rats; format: in vivo, rat; settings: 2 mg/kg (amount of naproxen in dose)
Method: The carotid artery of Sprague-Dawley rat (250-350 g, male) was catheterized at least one day before drug administration and flushed with 30% polyvinyl pyrrolidone (PVP) (400 U/mL of heparin) to maintain patency. […] After centrifugation (13,000 rpm, 10 min, 4° C.), the plasma samples were collected and analyzed in the same day.
Aliquot of plasma sample (100 μL) was mixed with 200 μL of acetonitrile. After vortexing and centrifugation (13,000 rpm, 10 min, 4° C.), 200 μL of supernatant was removed and added to 300 μL of a 58:42 mixture of 50 mM phosphate buffer (pH 5.0) and acetonitrile. Following vortexing and centrifugation, 25 μL of supernatant was removed and analyzed by HPLC with a UV detection system.
The average plasma concentration at each time point was calculated and utilized in a pharmacokinetic analysis. Non-compartmental pharmacokinetic analysis was carried out using WinNolin (Pharsight, Mountainview, Calif.) to calculate the maximum concentration (Cmax), time to maximum concentration (Tmax), area under the curve from zero to the last time point (AUClast), the area under the curve from zero to infinite time (AUCinf), and the terminal phase half life (Beta-t1/2).

Compound: COc1ccc2cc([C@H](C)C(=O)O)ccc2c1 [Naproxen]
- paw volume increase, 4 Hours (Sprague-Dawley rats; naproxen 1 mg/kg oral): 0.63 ± 0.07
- paw volume increase, 5 Hours (Sprague-Dawley rats; naproxen 1 mg/kg oral): 0.75 ± 0.08
- paw volume increase, 4 Hours (Sprague-Dawley rats; naproxen 10 mg/kg oral): 0.32 ± 0.05
- paw volume increase, 5 Hours (Sprague-Dawley rats; naproxen 10 mg/kg oral): 0.39 ± 0.07
- reduction in swelling (Sprague-Dawley rats; oral 10 mg/kg one hour before carrageenan, at both time points): approximately 50%
- AUFINF [1]: 55 ± 7 μg * ht/mL
